From ChEMBL document CHEMBL2434892, “Flavones as isosteres of 4(1H)-quinolones: discovery of ligand efficient and dual stage antimalarial lead compounds” (Eur J Med Chem, 2013)

Tests used:
[1] = test system: Plasmodium falciparum; test: Antiplasmodial activity against chloroquine-resistant blood stage of Plasmodium falciparum W2 infected in human RBC after 48 hrs by flow cytometric analysis; format: functional, organism-based; conditions: W2, 48 h
[2] = Cytotoxicity against human HuH7 cells assessed as cell viability after 48 hrs by Alamar blue assay; format: cell-based, Huh-7
[3] = test system: Plasmodium berghei; test: microbe, parasite or virus in culture; conditions: Huh-7, Liver
Description: Antiplasmodial activity against liver sporozoite stage of Plasmodium berghei expressing luciferase and GFP infected in human HuH7 cells assessed as inhibition of parasite development incubated for 1 hr prior to parasite infection measured after 48 hrs by Alamar blue assay

[4] = test system: Plasmodium berghei; test: Antiplasmodial activity against liver sporozoite stage of Plasmodium berghei ANKA expressing GFP infected in human HuH7 cells assessed as inhibition of parasite development after 24 hrs by qRT-PCR analysis; format: functional, organism-based; conditions: Huh-7, Liver

`O=c1cc(-c2ccc(Oc3ccc(Cl)cc3)cc2)oc2ccc(Cl)cc12` gave an IC50 [1] of over 25 µM.

In the case of `O=c1cc(-c2ccc(Oc3ccc(Cl)cc3)cc2)oc2cc(Cl)ccc12`, the IC50 [1] is reported as 12.6 µM.

In the case of `Cc1ccc2c(=O)cc(-c3ccc(Oc4ccc(Cl)cc4)cc3)oc2c1`, the CC50 at 48 h [2] is reported as over 50 µM, the IC50 [3] is reported as 4.1 µM and the IC50 [1] is reported as 19.7 µM.

Compound `Cc1cc2oc(-c3ccc(Oc4ccc(Cl)cc4)cc3)cc(=O)c2cc1Cl` has an IC50 [1] of 23.2 µM.

In the case of `Cc1cc2oc(-c3ccc(Oc4ccc(OC(F)(F)F)cc4)cc3)cc(=O)c2cc1Cl`, the IC50 [1] is reported as over 25 µM.

Work on `O=c1cc(-c2ccc(Oc3cccc(OC(F)(F)F)c3)cc2)oc2ccccc12` yielded an IC50 [1] of 14.9 µM.

For `Cc1cc2oc(-c3ccc(OCCCC(F)(F)F)cc3)cc(=O)c2cc1Cl`, the IC50 [1] was 17.2 µM.

With `Cc1cc2oc(-c3ccc(-c4ccccc4)cc3)cc(=O)c2cc1Cl` the CC50 at 48 h [2] was over 90 µM, the IC50 [3] was 8.5 µM and the IC50 [1] was 14 µM.

Compound `O=c1c(Br)c(-c2ccc(-c3ccccc3)cc2)oc2cc(CBr)c(Cl)cc12` has an IC50 [1] of 5.96 µM.

Work on `Cc1cc2oc(-c3ccc(-c4ccccc4)cc3)c(Br)c(=O)c2cc1Cl` yielded an IC50 [1] of over 25 µM.

Compound `O=c1cc(-c2ccc(-c3ccccc3)cc2)oc2ccccc12` has an IC50 [1] of over 25 µM.

`O=c1cc(-c2ccc(-c3ccc(Cl)cc3)cc2)oc2ccccc12` gave an IC50 [1] of over 10 µM.

`O=c1cc(-c2ccc(-c3ccc(F)cc3)cc2)oc2ccccc12` showed an IC50 [1] of over 25 µM.

For `O=Cc1ccc(-c2ccc(-c3cc(=O)c4ccccc4o3)cc2)cc1`, the IC50 [1] was over 25 µM.

`Nc1ccc(-c2ccc(-c3cc(=O)c4ccccc4o3)cc2)cn1` showed a CC50 at 48 h [2] of over 15 µM, an IC50 [3] of 1.9 µM and an IC50 [1] of 3.88 µM.

`O=c1cc(-c2ccc(-c3cnc4ccccc4c3)cc2)oc2ccccc12` showed an IC50 [1] of 5.17 µM.

Compound `O=c1cc(-c2ccc(Oc3ccc(Cl)cc3)cc2)oc2ccccc12` has a CC50 at 48 h [2] of over 180 µM, an IC50 [3] of 6.2 µM and an IC50 [1] of 21 µM.

`O=c1cc(-c2ccc(Br)cc2)oc2ccccc12` gave an IC50 [1] of over 25 µM.

Compound `O=c1c(-c2ccc(O)cc2)coc2cc(O)cc(O)c12` [GENISTEIN] has an IC50 [4] of 20 µM.
